Assay results from patent US20250304623A1, “PEPTIDES FOR INTRACELLULAR DELIVERY” (UNIVERSIDADE DE SANTIAGO DE COMPOSTELA, priority 2022, published 2025).
Starred links: 1 amine or outer side, 2 acyl side, 3 side chain; linkers in the order of their positions; H or OH if unused. Residues, ends and D or L forms follow the SMILES beside them. Groups on a side chain read outwards from the residue. *: point of attachment. Glutaryl = O=C(CCCC(=O)[*:2])[*:1]; NHNH2 = NN*

Key:
Type in all cases: cell-based
[1] = system: Hek293 cells; assay: RLuc pDNA delivery, robotic library screening, Hek293
[2] = system: HCT116 cells; assay: EGFP mRNA delivery, robotic library screening, HCT116
Protocol: Cells were seeded in a 96 well plate the day before the experiment at a concentration of 50,000 cell/mL (100 μL/w) in DMEM+10% FBS+1% Gln-Abt. For robotic library screening, the delivery of EGFP-mRNA (from TriLink, fully substituted with 5-methoxyuridine, capped and polyadenylated; TriLink, CleanCap® EGFP mRNA (5moU), ref. L-7201) in six different cell lines was performed. Amphiphilic molecule stock solutions were prepared in DMSO as described above and diluted in DMEM to afford a range of concentrations. The solutions of EGFP-mRNA/amphiphilic molecule complexes were freshly prepared prior to the transfection experiments. 35 μL of the corresponding amphiphile were added to 10 μL of a solution of EGFP-mRNA at 10 ng/μL in DMEM. The mixture was shaken for 30 min at room temperature before the addition to the cells. The cell medium was aspirated, and cells were washed with PBS twice. Cells were covered with 39 μL of DMEM and 11 μL of the complex's solution were added to the cells and incubated for 4 h (final concentration of peptide=2.5, 5 and 10 μM; final concentration of EGFP-mRNA=25 ng/well). After the incubation, the medium was replaced by 100 μL of fresh DMEM supplemented with 10% FBS. The total EGFP fluorescence was quantified after 72 h in a well plate reader. Amphiphile transfection efficiency was compared and normalized to Lipofectamine® MessengerMax efficiency (value of 1 in Tables 1-5 and 7; double underlined numbers). All experiments were done in triplicate.
Tables 1-7: RLuc (pDNA) or EGFP (mRNA) expression levels were normalized to Lipofectamine reagents (value=1) and expressed as fold-times signal increase. In the case of siRNA, the siRNA treated cells fluorescence was compared with siMOCK control fluorescence, while Cas9-RNP mediated knockout was measured against the fluorescence of untreated cells. In both siRNA and Cas9-RNP, values are expressed as % fluorescence reduction. Amphiphile concentration was 5 μM in all cases. All experiments were performed in triplicate.
Tables 14-19 show the mean (triplicates) fluorescence intensity measured after the transfection of EGFP mRNA by different amphiphiles at different concentrations in a variety of cell lines. Background fluorescence values, accounted by untreated control cells, were subtracted for processing.

[3] = system: Hek293 cells expressing EGFP; assay: Cas9-RNP delivery against EGFP (gene editing, plate reader), Hek293
Protocol: (§1) To generate an EGFP expressing HeLa cell line, HeLa cells were transfected with EGFP pDNA (pEGFP-C1, Clontech) and stable transfectants were selected with 400 μg/mL of G-418 (Millipore). Green clones were selected by epifluorescence microscopy and tested for EGFP expression stability through several passages. […] All other EGFP-expressing cell lines were obtained in a similar way from parent non-EGFP-expressing cell lines.
(§2) Cells expressing EGFP were seeded in a 96 well plate the day before the experiment at a concentration of 50,000 cell/mL (100 μL/w) in DMEM+10% FBS+1% Gln-Abt. For robotic library screening, the delivery of Cas9-RNP against EGFP (RNP designed to knock-out the gene encoding for the enhanced green fluorescent protein (EGFP)) was performed. For RNP assembly, 9.2 μL of crRNA and 9.2 μL of tracrRNA were mixed in 211.6 μL of Nuclease-Free Duplex Buffer (IDT), incubated for 5 min at 95° C. and slowly cooled at rt (see I. Lostalé-Seijo, et al. Peptide/Cas9 nanostructures for ribonucleoprotein cell membrane transport and gene edition, Chem. Sci., 2017). Cas9 protein was dissolved in DMEM at a final concentration of 4 μM and equal volumes of the RNA complex and Cas9 were mixed and incubated for 5 min at rt. 75 μL of the corresponding amphiphile concentrations were added to 5 μL of RNP at 2 μM. The mixture was shaken for 30 min at room temperature before the addition to the cells. The cell medium was aspirated, and cells were washed twice with PBS. Cells were covered with 30 μL of DMEM and 20 μL of the RNP/amphiphile complexes were added to the cells (final peptide concentrations=2.5, 5 and 10 μM; final Cas9-RNP concentration=50 nM) and incubated for 4 h. After the incubation, the medium was replaced by 100 μL of fresh DMEM supplemented with 10% FBS. The total EGFP fluorescence was quantified after 72 h in a plate reader (FIG. 2, Table 1 (right) and Table 6). All experiments were done in triplicate. […]
(§3) Tables 26-31 show the mean (triplicates) percentage of gene editing, accounted by GFP fluorescence intensity decrease (% of reduction), measured after the transfection of Cas9-RNP by different amphiphiles at different concentrations in a variety of cell lines. Background values, accounted by untreated control cells, were subtracted for processing.

[4] = system: HepG2 cells expressing EGFP; assay: Cas9-RNP delivery against EGFP (gene editing, plate reader), HepG2
Protocol: as §1, §2, §3

| Compound | mean luminescent intensity (RLuc pDNA) ([1]; Oleyl, 15 μM) | mean luminescent intensity (RLuc pDNA) ([1]; Palmitoleyl, 5 μM) | mean luminescent intensity (RLuc pDNA) ([1]; Palmitoleyl, 10 μM) | mean luminescent intensity (RLuc pDNA) ([1]; Palmitoleyl, 15 μM) | mean luminescent intensity (RLuc pDNA) ([1]; Petroselinyl, 5 μM) | mean luminescent intensity (RLuc pDNA) ([1]; Petroselinyl, 10 μM) | mean luminescent intensity (RLuc pDNA) ([1]; Petroselinyl, 15 μM) | mean fluorescence intensity (EGFP mRNA) ([2]; Myristoleyl, 2.5 μM) | mean fluorescence intensity (EGFP mRNA) ([2]; Petroselinyl, 5 μM) | mean fluorescence intensity (EGFP mRNA) ([2]; Petroselinyl, 10 μM) | percentage of gene editing, GFP fluorescence intensity decrease (% of reduction) ([3]; Dodecanal, 5 μM) | percentage of gene editing, GFP fluorescence intensity decrease (% of reduction) ([3]; Oleyl, 5 μM) | percentage of gene editing, GFP fluorescence intensity decrease (% of reduction) ([3]; Oleyl, 10 μM) | percentage of gene editing, GFP fluorescence intensity decrease (% of reduction) ([3]; Petroselinyl, 5 μM) | percentage of gene editing, GFP fluorescence intensity decrease (% of reduction) ([4]; Dodecanal, 10 μM) | percentage of gene editing, GFP fluorescence intensity decrease (% of reduction) ([4]; Dodecanal, 15 μM) | percentage of gene editing, GFP fluorescence intensity decrease (% of reduction) ([4]; Myristoleyl, 10 μM) | percentage of gene editing, GFP fluorescence intensity decrease (% of reduction) ([4]; Oleyl, 5 μM) | percentage of gene editing, GFP fluorescence intensity decrease (% of reduction) ([4]; Oleyl, 10 μM) | percentage of gene editing, GFP fluorescence intensity decrease (% of reduction) ([4]; Petroselinyl, 5 μM) | further results |
| --- | --- | --- | --- | --- | --- | --- | --- | --- | --- | --- | --- | --- | --- | --- | --- | --- | --- | --- | --- | --- | --- |
| Ac-RK*LRRK*LRK*-NH2 (Ac-RK(NHNH2)LRRK(NHNH2)LRK(NHNH2)-NH2; not fully specified; printed as Ac-RK*LRRK*LRK*-NH2; also: K*2,K*6,K*9: native or modified lysine (ε-amide to a linker)) [Peptide 9.3] | 4792 RLU | −143 RLU | −284 RLU | 3126 RLU | −1091 RLU | −1142 RLU | 147 RLU | 2151 | 919 | 1252 | −11% | 12% | −5% | −12% | −29% | −26% | −5% | −10% | 3% | −24% | mean luminescent intensity (RLuc pDNA) ([1]; Dodecanal, 10 μM): 71221 RLU; mean luminescent intensity (RLuc pDNA) ([1]; Dodecanal, 15 μM): 33244 RLU; mean fluorescence intensity (EGFP mRNA) ([2]; Dodecanal, 5 μM): 526; mean fluorescence intensity (EGFP mRNA) ([2]; Oleyl, 2.5 μM): 1067; mean fluorescence intensity (EGFP mRNA) ([2]; Oleyl, 5 μM): 910; mean fluorescence intensity (EGFP mRNA) ([2]; Oleyl, 10 μM): 1044; percentage of gene editing, GFP fluorescence intensity decrease (% of reduction) ([3]; Dodecanal, 10 μM): −53%; percentage of gene editing, GFP fluorescence intensity decrease (% of reduction) ([4]; Petroselinyl, 10 μM): −19% |
| CC(=O)N[C@@H](CCCNC(=N)N)C(=O)N[C@@H](CCCCNC(=O)CCCC(=O)NN)C(=O)N[C@@H](Cc1c[nH]cn1)C(=O)N[C@@H](CCCNC(=N)N)C(=O)N[C@@H](CCCCNC(=O)CCCC(=O)NN)C(=O)N[C@@H](CCCCNC(=O)CCCC(=O)NN)C(=O)N[C@@H](Cc1c[nH]cn1)C(N)=O [7.3(L-H), Ac-RK*HRK*K*H-NH2] (Ac-RK([Glutaryl-NHNH2])HRK([Glutaryl-NHNH2])K([Glutaryl-NHNH2])H-NH2) | – | 294438 RLU | 191190 RLU | 87323 RLU | 286371 RLU | 237379 RLU | 157061 RLU | 76926 | 19656 | 9118 | – | −5% | 6% | 1% | −28% | −28% | −25% | −17% | −13% | – | mean luminescent intensity (RLuc pDNA) ([1]; Myristoleyl, 5 μM): 330418 RLU; mean luminescent intensity (RLuc pDNA) ([1]; Myristoleyl, 10 μM): 145597 RLU; mean luminescent intensity (RLuc pDNA) ([1]; Myristoleyl, 15 μM): 36468 RLU; mean fluorescence intensity (EGFP mRNA) ([2]; Myristoleyl, 5 μM): 19128; mean fluorescence intensity (EGFP mRNA) ([2]; Palmitoleyl, 2.5 μM): 32455; mean fluorescence intensity (EGFP mRNA) ([2]; Palmitoleyl, 5 μM): 26406; mean fluorescence intensity (EGFP mRNA) ([2]; Palmitoleyl, 10 μM): 6504; mean fluorescence intensity (EGFP mRNA) ([2]; Petroselinyl, 2.5 μM): 5653; percentage of gene editing, GFP fluorescence intensity decrease (% of reduction) ([3]; Myristoleyl, 5 μM): −6%; percentage of gene editing, GFP fluorescence intensity decrease (% of reduction) ([3]; Oleyl, 15 μM): 0%; percentage of gene editing, GFP fluorescence intensity decrease (% of reduction) ([3]; Palmitoleyl, 5 μM): 23%; percentage of gene editing, GFP fluorescence intensity decrease (% of reduction) ([3]; Palmitoleyl, 10 μM): −5%; percentage of gene editing, GFP fluorescence intensity decrease (% of reduction) ([3]; Palmitoleyl, 15 μM): −2%; percentage of gene editing, GFP fluorescence intensity decrease (% of reduction) ([4]; Myristoleyl, 5 μM): −16%; percentage of gene editing, GFP fluorescence intensity decrease (% of reduction) ([4]; Myristoleyl, 15 μM): −19%; percentage of gene editing, GFP fluorescence intensity decrease (% of reduction) ([4]; Oleyl, 15 μM): −12%; percentage of gene editing, GFP fluorescence intensity decrease (% of reduction) ([4]; Palmitoleyl, 5 μM): −23%; percentage of gene editing, GFP fluorescence intensity decrease (% of reduction) ([4]; Palmitoleyl, 10 μM): −12%; percentage of gene editing, GFP fluorescence intensity decrease (% of reduction) ([4]; Palmitoleyl, 15 μM): −25%; percentage of gene editing, GFP fluorescence intensity decrease (% of reduction) ([4]; Petroselinyl, 10 μM): −20% |
| Ac-RHLK*RHK*RRLK*RH-NH2 (Ac-RHLKRHKRRLKRH-NH2; not fully specified (residues 4, 7, 11); printed as Ac-RHLK*RHK*RRLK*RH-NH2; also: linker on K* not given here) [13(3His)] | 87323 RLU | 46216 RLU | 51837 RLU | 10351 RLU | 330418 RLU | 145597 RLU | 36468 RLU | – | 238 | 541 | −4% | – | – | 21% | −34% | – | −1% | – | – | −16% | mean luminescent intensity (RLuc pDNA) ([1]; Oleyl, 5 μM): 294438 RLU; mean luminescent intensity (RLuc pDNA) ([1]; Oleyl, 10 μM): 191190 RLU; mean fluorescence intensity (EGFP mRNA) ([2]; Petroselinyl, 2.5 μM): 563; percentage of gene editing, GFP fluorescence intensity decrease (% of reduction) ([3]; Myristoleyl, 5 μM): −13%; percentage of gene editing, GFP fluorescence intensity decrease (% of reduction) ([3]; Palmitoleyl, 5 μM): −16%; percentage of gene editing, GFP fluorescence intensity decrease (% of reduction) ([3]; Palmitoleyl, 15 μM): −47%; percentage of gene editing, GFP fluorescence intensity decrease (% of reduction) ([3]; Petroselinyl, 10 μM): 4%; percentage of gene editing, GFP fluorescence intensity decrease (% of reduction) ([3]; Petroselinyl, 15 μM): −13%; percentage of gene editing, GFP fluorescence intensity decrease (% of reduction) ([4]; Dodecanal, 5 μM): −33%; percentage of gene editing, GFP fluorescence intensity decrease (% of reduction) ([4]; Palmitoleyl, 5 μM): −28%; percentage of gene editing, GFP fluorescence intensity decrease (% of reduction) ([4]; Palmitoleyl, 10 μM): −24%; percentage of gene editing, GFP fluorescence intensity decrease (% of reduction) ([4]; Palmitoleyl, 15 μM): −15% |
